SMILES strings stand for the structures. Active and inactive are the calls of the source.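 Rule for the calls: active = growth-inhibition EC50 no more than tenfold above the top tested dose; inconclusive = flat fit between 30% and 70% inhibition, or unreliable fit; inactive = EC50 more than tenfold above the top tested dose.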 A value given as a limit tells only on which side of the number the result lay.

These results are taken from PubChem BioAssay AID1959 (Broad Institute, 2009).

This assay concerns E. coli NEB5alpha growth, BacTiter-Glo luminescence, 4 h. Briefly: antibacterial activity against E. coli NEB5alpha – luminescence, counter-screen for MEX-5/POS-1 RNA-binding inhibitor project, dose response (AID 1959).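 Note: pUC19-transformed ampicillin-resistant cells grown in LB with ampicillin.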 Background: A counterscreen serves to expose hits that act by an unwanted route or on another target.
The term EC50 denotes the midpoint of the concentration-response curve. `COc1cc(S(=O)(=O)Nc2ccc(C)cc2)ccc1N=Cc1c(C)c(C#N)c(=O)n(C)c1O`: the EC50 is > 11 µM (inactive).
With `CCOc1ccc(-n2c(O)c(C=Nc3ccc(N4CCOCC4)cc3)c(=O)[nH]c2=O)cc1` the figure was > 11 µM (inactive); with `Oc1ccc(CCNc2c3ccccc3nc3ccccc23)cc1O`, > 11 µM (inactive).
Consider `NC(=O)c1c(NC(=O)c2c(F)cccc2F)sc2c1CCN(Cc1ccccc1)C2`, for which the EC50 was > 11 µM (inactive).
As to `CCN(CC)c1ccc(N=Cc2c(O)n(-c3ccccc3)c(=O)[nH]c2=O)cc1`, the EC50 was > 11 µM (inactive).
With `N#C/C(=C/c1cccn1-c1cccc(C(=O)O)c1)c1ccc(F)cc1` the figure was > 11 µM (inactive); with `COc1ccc2nc3ccccc3nc2c1NC(=O)c1ccc(Cl)cc1Cl`, > 11 µM (inactive); with `Cc1ccc(Cn2c(=N)c(C(=O)NCC3CCCO3)cc3c(=O)n4ccccc4nc32)cc1` (stereo not drawn), > 11 µM (inactive).
In the case of `COC(=O)c1cc(C(=O)OC)cc(-n2c(C)cc(C(=O)CC#N)c2C)c1`, the EC50 was > 11 µM (inactive).
With `Cc1[nH][nH]c(=O)c1C(c1cc([N+](=O)[O-])ccc1O)c1c(C)[nH][nH]c1=O` the figure was > 11 µM (inactive).
For the compound `N#CC1=C(N)OC2=C(C(=O)CCC2)C1c1ccccc1` (stereo not drawn), the EC50 was > 11 µM (inactive).
With `O=C(NCc1ccccn1)C1Nc2ccc(C(F)(F)F)cc2C2C=CCC12` (stereo not drawn) the figure was > 11 µM (inactive).
Turning to `O=C(COC(=O)CCc1c[nH]c(=O)[nH]1)Nc1ccccc1Cl`, the EC50 is > 11 µM (inactive).
The value for `CCOC(=O)c1c2ccc(OCC(=O)N/N=C/c3ccc(C)cc3)cc2n2ccccc12` was > 11 µM (inactive).
With `O=C/C(=C\Nc1ccccn1)c1nc2cc(Cl)ccc2o1`, the EC50 is > 11 µM (inactive).
Regarding `CCOc1ccccc1NC(=O)Nc1ccc(OC)nc1`, the EC50 is > 11 µM (inactive).
Take `CCN1C(=O)NC(=O)/C(=C\c2cn(CC(=O)O)c3ccccc23)C1=O`: the EC50 is > 11 µM (inactive).
On to `COc1ccccc1Oc1cn[nH]c1-c1ccc(OCC(=O)NN)cc1O`, for which the EC50 was > 11 µM (inactive).
With `COc1ccc(OC)c(S(=O)(=O)Nc2ccc(O)c(Sc3ncn[nH]3)c2)c1` the figure was > 11 µM (inactive).
Turning to `O=C(c1ccc(F)cc1)N1CCN(C2CCC(c3ccccc3)CC2)CC1` (stereo not drawn), the EC50 was > 11 µM (inactive).
The value for `C=CCOc1cccc(C2C(C(=O)c3ccc(C)o3)=C(O)C(=O)N2c2nnc(C)s2)c1` (stereo not drawn) was > 11 µM (inactive); that for `CCn1cc(C=C2C(=O)NC(=O)NC2=O)c2ccccc21` was > 11 µM (inactive); that for `COc1ccc(-c2cc3ccc(OCC(N)=O)cc3oc2=O)cc1OC` was > 11 µM (inactive).
The value for `CC1(OC(=O)C2CCCC2)C(=O)C=C2C=C(c3ccsc3)OC=C2C1=O` (stereo not drawn) was > 11 µM (inactive); that for `COc1ccc(C2C(C#N)=C(N)OC3=C2C(=O)CC(C)(C)C3)c([N+](=O)[O-])c1OC` (stereo not drawn) was > 11 µM (inactive).
The value for `N#CCC(N)=C(C#N)C#N` was > 11 µM (inactive); that for `COC(=O)[C@@]1(C#N)[C@@H]2C=CC(C(C)=O)=CN2[C@@H](C(N)=O)[C@@H]1c1ccc(F)cc1` was > 11 µM (inactive).
As to `CCn1c2ccccc2c(=O)c2ccccc21`, the EC50 is > 11 µM (inactive).
In the case of `Cc1cccc(C)c1NC(=O)CN1C(=O)S/C(=C\c2cccn2-c2cccc(C(=O)O)c2)C1=O`, the EC50 is > 11 µM (inactive).
The value for `Cc1ccc(NC(=O)c2sc3nc4c(c(-c5ccco5)c3c2N)CCC4)cc1` was > 11 µM (inactive); that for `CC(=NC1CCCC1)c1c(C)[nH]n(-c2nc3ccccc3s2)c1=O` was > 11 µM (inactive).
For the compound `CC1=CC(=C(C#N)c2nc3ccccc3s2)C=C(C)N1CC1CCCO1` (stereo not drawn), the EC50 is > 11 µM (inactive).
For `CC(C)(C)OC(=O)NC(Cc1ccccc1)C(=O)N1CCC(C(=O)NCC(=O)Nc2ccc(F)cc2)CC1` (stereo not drawn), the EC50 was > 11 µM (inactive).
